Patent US20240166693A1, “METHODS AND COMPOUNDS FOR MODULATING MYOTONIC DYSTROPY 1” (Design Therapeutics, Inc., priority 2020, published 2024)

test system: Myotonic Dystrophy 1 affected patient fibroblasts (Coriell GM04602; 1600 CTG repeats); assay: DM1 foci reduction assay (CAG10-Cy3 FISH, average foci per nucleus); format: cell-based; settings: Homo sapiens, Fibroblast, 48 h, read-out: Foci Reduction in Fibroblast EC50, 48 h (nM)
Method: DM1 foci reduction assay methods: Myotonic Dystrophy 1 affected patient fibroblasts (Coriell GM04602; 1600 CTG repeats) and wild type fibroblasts (Coriell GM07492; control line) were cultured separately in Gibco DMEM (1×)+4.5 g/L D-Glucose+L-Glutamine+110 mg/L Sodium Pyruvate, supplemented with 10% FBS and 1× Pen/Strep. Cells were maintained in incubator at 37° C. and 5% CO2 with media refresh every 48-72 hours.
At 90-95% confluency, both cell lines were harvested using Trypl-E then pelleted at 500×g for 5 minutes and were resuspended in media. DM1 fibroblasts were seeded in Agilent 96 well black plates at a density of 5,000 cells/well in 200 μL media; 8 wells were reserved for control fibroblasts. Plates were returned to incubator for 24 hours at 37° C. and 5% CO2.
Compounds were diluted from 10 mM stock to 1 mM in DMSO, then diluted once more to 6 μM (2× concentration) in media. Media was removed from all plates and cells were replenished with 100 μL media. Cells were treated in 8-point dose response, 1:3 fold dilution, 3 μM top dose via addition of 100 μL of 6 μM (2× concentration) compound to the 100 μL media with cells. Plates were returned to incubator for 48-hour time-course experiment at 37° C. and 5% CO2.
Following treatment, compounds were removed, and plates were washed with PBS, then cells were fixed in 75 μL 4% PFA solution for 20 minutes at room temperature. Plates were washed twice with PBS and twice with cold 70% ethanol before permeabilization with 250 μL cold 70% ethanol for 24-72 hours at −20° C.
After permeabilization, plates were washed once with a 30% formamide and 2×SSC buffer and rehydrated in that buffer for 15 minutes at room temperature. Cells were incubated overnight at 37° C. in 75 μL of a hybridization solution containing 30% formamide, 2×SSC, 25 mg/mL dextran sulfate, 2.5 mg/mL BSA, 0.2 μg/mL Herring sperm DNA, 2 mM vanadyl-ribonucleoside complex, and 5 nM CAG10-Cy3 probe.
Plates were washed once with 30% formamide in 2×SSC buffer, then twice with the buffer for 30 minutes at 37° C., 300 RPM in an incubating plate shaker. Cells were stained with 75 μL of 2.5 μg/mL DAPI in PBS for 5 minutes at room temperature. Plates were then washed twice with PBS and stored in 250 μL PBS. Plates were sealed with adhesive foil and wiped down with 70% ethanol.
Cells were imaged on a Cytation5 with a 20× objective sampling from 4 areas of each well. Nuclei were captured under DAPI channel and foci under RFP channel. Plates were analyzed on an average foci per nucleus per well basis.

SMILES | EC50 [nM]
CCN(CC)CCCCC(NC(=O)[C@H](CC(C)C)NC(=O)C(C)NC(=O)[C@H](Cc1ccccc1)NC(=O)c1ccc(C(C)(C)C)cc1)C(=O)N[C@@H](CO)C(=O)NCCCN(C)CCCNC(=O)CCNC(=O)c1nc(NC(=O)c2cc(NC(=O)CCNC(=O)c3nc(NC(=O)CCCNC(=O)c4cc(NC(=O)c5nc(NC(=O)CCNC(=O)c6cc(NC(=O)c7nccn7C)cn6C)cn5C)cn4C)cn3C)cn2C)cn1C (stereo in doubt) [Compound 71] | > 500
CCN(CC)CCCC[C@H](NC(=O)[C@H](CC(C)C)NC(=O)[C@H](C)NC(=O)[C@H](Cc1ccccc1)NC(=O)c1ccc(C(C)(C)C)cc1)C(=O)N[C@@H](CO)C(=O)NCCOCCOCCOCCOCCOCCNC(=O)c1nc(NC(=O)CCNC(=O)c2cc(NC(=O)c3nc(NC(=O)CCNC(=O)c4cc(NC(=O)c5nc(NC(=O)CCNC(=O)c6cccn6C)cn5C)cn4C)cn3C)cn2C)cn1C [Compound 10] | > 500
CCN(CC)CCCC[C@H](NC(=O)[C@H](CC(C)C)NC(=O)[C@H](C)NC(=O)[C@H](Cc1ccccc1)NC(=O)c1ccc(C(C)(C)C)cc1)C(=O)N[C@@H](CO)C(=O)NCCOCCOCCOCCOCCOCCNC(=O)CCNC(=O)c1nc(NC(=O)c2cc(NC(=O)CCNC(=O)c3nc(NC(=O)CCCNC(=O)c4cc(NC(=O)c5nc(NC(=O)CCNC(=O)c6cc(NC(=O)c7nccn7C)cn6C)cn5C)cn4C)cn3C)cn2C)cn1C [Compound 25] | 100 to 500
CCN(CC)CCCC[C@H](NC(=O)[C@H](CC(C)C)NC(=O)[C@H](C)NC(=O)[C@H](Cc1ccccc1)NC(=O)c1ccc(C(C)(C)C)cc1)C(=O)N[C@@H](CO)C(=O)NCCOCCOCCOCCOCCOCCOCCOCCOCCOCCOCCNC(=O)CCNC(=O)c1nc(NC(=O)c2cc(NC(=O)CCNC(=O)c3nc(NC(=O)CCCNC(=O)c4cc(NC(=O)c5nc(NC(=O)CCNC(=O)c6cc(NC(=O)c7nccn7C)cn6C)cn5C)cn4C)cn3C)cn2C)cn1C [Compound 26] | 100 to 500
CCN(CC)CCCC[C@H](NC(=O)[C@H](CC(C)C)NC(=O)[C@H](C)NC(=O)[C@H](Cc1ccccc1)NC(=O)c1ccc(C(C)(C)C)cc1)C(=O)N[C@@H](CO)C(=O)NCCOCCOCCOCCOCCOCCOCCOCCOCCOCCOCCOCCOCCOCCOCCOCCNC(=O)CCNC(=O)c1nc(NC(=O)c2cc(NC(=O)CCNC(=O)c3nc(NC(=O)CCCNC(=O)c4cc(NC(=O)c5nc(NC(=O)CCNC(=O)c6cc(NC(=O)c7nccn7C)cn6C)cn5C)cn4C)cn3C)cn2C)cn1C [Compound 27] | < 100
CCN(CC)CCCC[C@H](NC(=O)[C@H](CC(C)C)NC(=O)[C@H](C)NC(=O)[C@H](Cc1ccccc1)NC(=O)c1ccc(C(C)(C)C)cc1)C(=O)N[C@@H](CO)C(=O)NCCOCCOCCOCCOCCOCCNC(=O)c1cc(NC(=O)c2cc(NC(=O)c3nc(NC(=O)c4cc(NC(=O)[C@@H](N)CCNC(=O)c5nc(NC(=O)c6cc(NC(=O)c7cc(NC(=O)c8nccn8C)cn7C)cn6C)cn5C)cn4C)cn3C)cn2C)cn1C [Compound 55] | > 500
CCN(CC)CCCC[C@H](NC(=O)[C@H](CC(C)C)NC(=O)[C@H](C)NC(=O)[C@H](Cc1ccccc1)NC(=O)c1ccc(C(C)(C)C)cc1)C(=O)N[C@@H](CO)C(=O)NCCOCCOCCOCCOCCOCCNC(=O)c1cc(NC(=O)c2cc(NC(=O)c3nc(NC(=O)c4cc(NC(=O)[C@@H](N)CCNC(=O)c5nc(NC(=O)CCNC(=O)c6cc(NC(=O)c7nccn7C)cn6C)cn5C)cn4C)cn3C)cn2C)cn1C [Compound 56] | > 500
CCN(CC)CCCC[C@H](NC(=O)[C@H](CC(C)C)NC(=O)[C@H](C)NC(=O)[C@H](Cc1ccccc1)NC(=O)c1ccc(C(C)(C)C)cc1)C(=O)N[C@@H](CO)C(=O)NCCOCCOCCOCCOCCOCCNC(=O)c1cc(NC(=O)c2nc(NC(=O)c3cc(NC(=O)[C@@H](N)CCNC(=O)c4nc(NC(=O)c5cc(NC(=O)c6cc(NC(=O)c7nccn7C)cn6C)cn5C)cn4C)cn3C)cn2C)cn1C [Compound 57] | > 500
CC(C)C[C@H](NC(=O)[C@H](C)NC(=O)[C@H](Cc1ccccc1)NC(=O)c1ccc(C(C)(C)C)cc1)C(=O)N[C@@H](CCCCN(C)C1CC2CCC1C2)C(=O)N[C@@H](CO)C(=O)NCCOCCOCCOCCOCCOCCNC(=O)c1cc(NC(=O)c2cc(NC(=O)c3nc(NC(=O)c4cc(NC(=O)[C@@H](N)CCNC(=O)c5nc(NC(=O)c6cc(NC(=O)c7cc(NC(=O)c8nccn8C)cn7C)cn6C)cn5C)cn4C)cn3C)cn2C)cn1C (some centres unmarked) [Compound 58] | > 500
CC(C)C[C@H](NC(=O)[C@H](C)NC(=O)[C@H](Cc1ccccc1)NC(=O)c1ccc(C(C)(C)C)cc1)C(=O)N[C@@H](CCCCN(C)C1CC2CCC1C2)C(=O)N[C@@H](CO)C(=O)NCCOCCOCCOCCOCCOCCNC(=O)CCNC(=O)c1nc(NC(=O)c2cc(NC(=O)CCNC(=O)c3nc(NC(=O)CCCNC(=O)c4cc(NC(=O)c5nc(NC(=O)CCNC(=O)c6cc(NC(=O)c7nccn7C)cn6C)cn5C)cn4C)cn3C)cn2C)cn1C (some centres unmarked) [Compound 59] | 100 to 500

same assay, conditions: Homo sapiens, Fibroblast; DM1 fibroblasts, 48 h treatment, 8-point dose response, 3 μM top dose; read-out: Foci Reduction in Fibroblast EC50, 48 h

SMILES | EC50 [nM]
Cn1cc(NC(=O)c2nc(NC(=O)CCNC(=O)c3cc(NC(=O)c4nc(NC(=O)CCNC(=O)c5cccn5C)cn4C)cn3C)cn2C)cc1C(=O)NCCC(=O)Nc1cn(C)c(C(=O)NCCOCCOCCOCCOCCOCCOCCOCCOCCOCCOCCN2CCC(C(=O)Nc3ncc(SCc4ncc(C(C)(C)C)o4)s3)CC2)n1 [Compound 2] | < 100
Cn1cc(NC(=O)c2nc(NC(=O)CCNC(=O)c3cc(NC(=O)c4nccn4C)cn3C)cn2C)cc1C(=O)NCCCC(=O)Nc1cn(C)c(C(=O)NCCC(=O)Nc2cc(C(=O)Nc3cn(C)c(C(=O)NCCC(=O)NCCOCCOCCOCCOCCOCCOCCOCCOCCOCCOCCN4CCC(C(=O)Nc5ncc(SCc6ncc(C(C)(C)C)o6)s5)CC4)n3)n(C)c2)n1 [Compound 17] | > 500
CC(C)c1cnn2c(NCc3ccc(OCCOCCOCCOCCOCCOCCOCCOCCOCCOCCOCCNC(=O)CCNC(=O)c4nc(NC(=O)c5cc(NC(=O)CCNC(=O)c6nc(NC(=O)CCCNC(=O)c7cc(NC(=O)c8nc(NC(=O)CCNC(=O)c9cc(NC(=O)c%10nccn%10C)cn9C)cn8C)cn7C)cn6C)cn5C)cn4C)cc3-n3cccn3)nc(OC3CCCNC3)nc12 (centres unmarked) [Compound 53] | > 500
CC(C)c1cnn2c(NCc3ccc(OCCOCCOCCOCCOCCOCCOCCOCCOCCOCCOCCOCCOCCOCCOCCOCCNC(=O)CCNC(=O)c4nc(NC(=O)c5cc(NC(=O)CCNC(=O)c6nc(NC(=O)CCCNC(=O)c7cc(NC(=O)c8nc(NC(=O)CCNC(=O)c9cc(NC(=O)c%10nccn%10C)cn9C)cn8C)cn7C)cn6C)cn5C)cn4C)cc3-n3cccn3)nc(OC3CCCNC3)nc12 (centres unmarked) [Compound 54] | > 500
Cn1cc(NC(=O)c2nc(NC(=O)CCNC(=O)c3cc(NC(=O)c4nccn4C)cn3C)cn2C)cc1C(=O)NCCCC(=O)Nc1cn(C)c(C(=O)NCCC(=O)Nc2cc(C(=O)Nc3cn(C)c(C(=O)NCCC(=O)NCCOCCOCCOCCOCCOCCNC(=O)c4ccc(-c5cnc(NCc6ccco6)n6cnnc56)cc4)n3)n(C)c2)n1 [Compound 60] | 100 to 500
Cc1nc(CCC(=O)NCCOCCOCCOCCOCCOCCNC(=O)CCNC(=O)c2nc(NC(=O)c3cc(NC(=O)CCNC(=O)c4nc(NC(=O)CCCNC(=O)c5cc(NC(=O)c6nc(NC(=O)CCNC(=O)c7cc(NC(=O)c8nccn8C)cn7C)cn6C)cn5C)cn4C)cn3C)cn2C)ccc1-c1cnc(NCc2c(F)ccc3c2CCO3)n2cnnc12 [Compound 62] | > 500
Cc1nc(CCC(=O)NCCOCCOCCOCCOCCOCCOCCOCCOCCOCCOCCOCCOCCOCCOCCOCCNC(=O)CCNC(=O)c2nc(NC(=O)c3cc(NC(=O)CCNC(=O)c4nc(NC(=O)CCCNC(=O)c5cc(NC(=O)c6nc(NC(=O)CCNC(=O)c7cc(NC(=O)c8nccn8C)cn7C)cn6C)cn5C)cn4C)cn3C)cn2C)ccc1-c1cnc(NCc2c(F)ccc3c2CCO3)n2cnnc12 [Compound 63] | > 500
